Patent publication US20090076131A1, “Anti-Cancer and Anti-Inflammatory Effects of Annurca Apple Extracts and Compositions Purified Therefrom” (BAYLOR RESEARCH INSTITUTE, priority 2007, published 2009)

How the values were obtained:
p16^INK4a = experiment: mRNA expression by conventional RT-PCR; format: cell-based, Human
Description: (§1) Conventional RT-PCR was also performed to assess the mRNA expression of p14^ARF 27, p16^INK4a 28, hMLH1^29, DNMT-1^30 and DNMT-3b^31. cDNA was generated with random hexamers using 2 μg of RNA. The PCR was performed as previously reported^32. β-actin was used as an endogenous control. The statistical significance of differences between the experimental points or between groups was analyzed using Student's t-test; and differences were considered significant when P<0.05.

p14^ARF = experiment: mRNA expression by conventional RT-PCR; format: cell-based, Human
Description: as §1

Nc1ncn([C@H]2C[C@H](O)[C@@H](CO)O2)c(=O)n1 [5-aza-2dC, 5-aza-2′deoxycytidine]
p16^INK4a RNA transcripts (p16^INK4a; RKO): re-expression | p16^INK4a RNA transcripts (p16^INK4a; SW48 cells): appearance of RNA transcripts | p14^ARF RNA transcripts (p14^ARF; RKO): re-expression | p14^ARF RNA transcripts (p14^ARF; SW48 cells): appearance of RNA transcripts
